Read-outs that look alike come from different tables or passages of the source.
How the values were obtained:
[1] = Plasma Stability Assay of Example A3, mouse plasma; settings: 5 μM, 37° C., % of prodrug compound remaining
[2] = type: physicochemical; settings: SGF with pepsin, pH 1.5, 37° C., 0.5 mM
[3] = Plasma Stability Assay of Example A3, human plasma; settings: 5 μM, 37° C., % of prodrug compound remaining
[4] = type: physicochemical; settings: DI water, 25° C., 0.5 mM
[5] = 5 μM
[6] = Hydrolysis Assay of Example A1 (conversion by LCMS); type: physicochemical; settings: pH = 2.0, 25° C., 0.5 mM, 0.01M HCl; 0-24 h
Description: The hydrolysis kinetics was under a certain temperature and measured by LCMS at a certain time interval. The corresponding LCMS chromatograms were recorded and the conversions were calculated. The hydrolysis conditions and the data were summarized in below table. LCMS spectra were obtained using Agilent 1200/G1956A or SHIMADZU LCMS-2020. Standard LCMS conditions were as follows (running time 1.55 minutes): • Acidic condition: Mobile Phase A: 0.0375% TFA in water (v/v). Mobile Phase B: 0.01875% TFA in acetonitrile (v/v); Column: Kinetex EVO C18 30*2.1 mm, 5 μm. • Basic condition: Mobile Phase A: 0.025% NH3·H2O in water (v/v). Mobile Phase B: Acetonitrile; Column: Kinetex EVO C18 2.1×30 mm, 5 μm. • Conversion (%)=peak area 1/(peak area 1+peak area 2)*100%, peak area 1 is the integration of hydrolyzed product, peak area 2 is the integration of starting material.

| Structure (SMILES) | Mouse Plasma Prodrug (%) ([1]; 0 min) | Mouse Plasma Prodrug (%) ([1]; 15 min) | Mouse Plasma Prodrug (%) ([1]; 30 min) | Mouse Plasma Prodrug (%) ([1]; 60 min) | Mouse Plasma Prodrug (%) ([1]; 120 min) | Mouse Plasma Prodrug (%) ([1]; 240 min) | Condition 1 Conversion (%) ([2]; time 1 min) | Condition 1 Conversion (%) ([2]; time 5 min) | Condition 1 Conversion (%) ([2]; time 30 min) | Human Plasma Prodrug (%) ([3]; 0 min) | Human Plasma Prodrug (%) ([3]; 15 min) | Human Plasma Prodrug (%) ([3]; 30 min) | Human Plasma Prodrug (%) ([3]; 60 min) | Human Plasma Prodrug (%) ([3]; 120 min) | Human Plasma Prodrug (%) ([3]; 240 min) | Mouse Plasma Compound 001 (%) ([5]; 15 min) | Mouse Plasma Compound 001 (%) ([5]; 30 min) | Mouse Plasma Compound 001 (%) ([5]; 60 min) | Mouse Plasma Compound 001 (%) ([5]; 120 min) | Mouse Plasma Compound 001 (%) ([5]; 240 min) | other results |
| --- | --- | --- | --- | --- | --- | --- | --- | --- | --- | --- | --- | --- | --- | --- | --- | --- | --- | --- | --- | --- | --- |
| COc1ccc([C@@]23CCC(OC(=O)C4CC4)=C[C@@H]2N(C)CC3)cc1OC [Compound 312, [(3aS,7aS)-3a-(3,4-dimethoxyphenyl)-1-methyl-3,4,5,7a-tetrahydro-2H-indol-6-yl]cyclopropanecarboxylate] | 100.0 | 3.5 | 1.6 | 2.2 | 2.8 | 0.8 | 0 | 0 | 0 | 100.0 | 8.1 | 6.2 | 20.9 | 10.5 | 13.8 | 66.1 | 70.8 | 64.4 | 61.7 | 61.5 | Condition 1 Conversion (%) ([2]; time 1 h): 0%; Condition 1 Conversion (%) ([2]; time 4 h): 0%; Condition 1 Conversion (%) ([2]; time 24 h): 0%; Condition 2 Conversion (%) ([4]; time 1 min): 0%; Condition 2 Conversion (%) ([4]; time 5 min): 0%; Condition 2 Conversion (%) ([4]; time 30 min): 0%; Condition 2 Conversion (%) ([4]; time 1 h): 0%; Condition 2 Conversion (%) ([4]; time 4 h): 0%; Condition 2 Conversion (%) ([4]; time 24 h): 0% |
| COc1ccc([C@]23CCN(C)[C@H]2CC2(CC3)SCCS2)cc1OC (racemic) [Compound 014, (7′aS)-3′a-(3,4-dimethoxyphenyl)-1′-methyl-spiro[1,3-dithiolane-2,6′-2,3,4,5,7,7a-hexahydroindole]] | – | – | – | – | – | – | – | – | – | – | – | – | – | – | – | – | – | – | – | – | Conversion (%) [6]: 0%; Notes (hydrolysis) [6]: Stable |
| C/C=C(\C)C(=O)OC1=C[C@@H]2N(C)CC[C@]2(c2ccc(OC)c(OC)c2)CC1 [Compound 313, [(3aS,7aS)-3a-(3,4-dimethoxyphenyl)-1-methyl-3,4,5,7a-tetrahydro-2H-indol-6-yl](E)-2-methylbut-2-enoate] | 100.0 | 2.1 | 0.7 | 0.1 | 0.0 | 0.0 | 0 | 0 | 0 | 100.0 | 62.2 | 35.1 | 12.8 | 2.4 | 0.4 | 37.2 | 36.3 | 37.1 | 35.2 | 35.0 | Condition 1 Conversion (%) ([2]; time 1 h): 0%; Condition 1 Conversion (%) ([2]; time 4 h): 0%; Condition 1 Conversion (%) ([2]; time 24 h): 0%; Condition 2 Conversion (%) ([4]; time 1 min): 0%; Condition 2 Conversion (%) ([4]; time 5 min): 0%; Condition 2 Conversion (%) ([4]; time 30 min): 0%; Condition 2 Conversion (%) ([4]; time 1 h): 0%; Condition 2 Conversion (%) ([4]; time 4 h): 0%; Condition 2 Conversion (%) ([4]; time 24 h): 0% |
| C=C(C)C(=O)OC1=C[C@@H]2N(C)CC[C@]2(c2ccc(OC)c(OC)c2)CC1 [Compound 315, [(3aS,7aS)-3a-(3,4-dimethoxyphenyl)-1-methyl-3,4,5,7a-tetrahydro-2H-indol-6-yl]-2-methylprop-2-enoate] | 100.0 | 5.3 | 2.4 | 1.3 | 2.0 | 1.9 | 0 | 0 | 0 | 100.0 | 16.6 | 2.3 | 0.5 | 0.2 | 0.0 | 60.4 | 61.9 | – | 57.3 | 55.8 | Condition 1 Conversion (%) ([2]; time 1 h): 0%; Condition 1 Conversion (%) ([2]; time 4 h): 0%; Condition 1 Conversion (%) ([2]; time 24 h): 0%; Condition 2 Conversion (%) ([4]; time 1 min): 0%; Condition 2 Conversion (%) ([4]; time 5 min): 0%; Condition 2 Conversion (%) ([4]; time 30 min): 0%; Condition 2 Conversion (%) ([4]; time 1 h): 0%; Condition 2 Conversion (%) ([4]; time 4 h): 0%; Condition 2 Conversion (%) ([4]; time 24 h): 0% |
| COc1ccc([C@@]23CCC(OC(=O)C(C)(C)C)=C[C@@H]2N(C)CC3)cc1OC [Compound 309, [(3aS,7aS)-3a-(3,4-dimethoxyphenyl)-1-methyl-3,4,5,7a-tetrahydro-2H-indol-6-yl]2,2-dimethylpropanoate] | 100.0 | 34.6 | 24.9 | 8.2 | 0.0 | 0.0 | 0 | 0 | 0 | 100.0 | 64.5 | 41.4 | 16.5 | 3.6 | 2.0 | 61.7 | 63.7 | 62.6 | 63.2 | 60.9 | Condition 1 Conversion (%) ([2]; time 1 h): 0%; Condition 1 Conversion (%) ([2]; time 4 h): 0%; Condition 1 Conversion (%) ([2]; time 24 h): 0%; Condition 2 Conversion (%) ([4]; time 1 min): 0%; Condition 2 Conversion (%) ([4]; time 5 min): 0%; Condition 2 Conversion (%) ([4]; time 30 min): 0%; Condition 2 Conversion (%) ([4]; time 1 h): 0%; Condition 2 Conversion (%) ([4]; time 4 h): 0%; Condition 2 Conversion (%) ([4]; time 24 h): 0% |
| COc1ccc([C@@]23CCC(OC(=O)c4ccc(F)cc4)=C[C@@H]2N(C)CC3)cc1OC [Compound 353, (3aS,7aS)-3a-(3,4-dimethoxyphenyl)-1-methyl-2,3,3a,4,5,7a-hexahydro-1H-indol-6-yl4-fluorobenzoate] | 100 | 0 | 0 | 0 | 0 | 0 | – | – | – | 100 | 95.4 | 90.1 | 79.7 | 55.3 | 39.6 | 55 | 51.6 | 50.6 | 46.4 | 29.3 | Mouse Plasma Compound 001 (%) ([5]; 0 min): 47.7% |
| COc1ccc([C@@]23CCC(OC(=O)c4cccc(N(C)C)c4)=C[C@@H]2N(C)CC3)cc1OC [Compound 307, [(3aS,7aS)-3a-(3,4-dimethoxyphenyl)-1-methyl-3,4,5,7a-tetrahydro-2H-indol-6-yl]3-(dimethylamino)benzoate] | 100.0 | 18.1 | 3.8 | 0.1 | 0.0 | 0.0 | – | – | – | 100.0 | 88.5 | 87.6 | 83.0 | 71.1 | 57.5 | 73.4 | 81.1 | 86.3 | 79.9 | 79.0 | – |

— patent US20250051277A1, “DELIVERY OF THERAPEUTIC ALKALOID COMPOUNDS” (Sensorium Therapeutics, Inc., priority 2021, published 2025)
